Values joined by “and” are separate entries in the source; they are usually repeats but may differ in a detail not shown here. Equal values may be shown once. Read-outs that look alike come from different tables or passages of the source.
Assay: 4-h oral plasma pharmacokinetics and tissue distribution, male wild-type and ABC transporter knockout mice
Type: in vivo
Conditions: 10 mg/kg oral; for AUC(0-t) / Kp at 4 h / concentration at 4 h / Cmax / Tmax: FVB, mouse; for AUC(0-t) / Cmax / Tmax: plasma; for AUC(0-t): read-out: AUC0–4h; for Fold change Cliver / Fold change SIC (% of dose) / Fold change ratio (SIC (%)-to-plasma) / Fold change ratio (liver-to-plasma) / Fold change ratio (testis-to-plasma) / Fold increase Cbrain / Fold increase Ctestis / Fold change ratio (brain-to-plasma) / Fold increase AUC0–4h: vs wild-type; for Tmax: median (range)
Excerpt: Mice with similar average ages (and body weights) were randomly allocated in experimental groups as far as possible. Mice were maintained in a temperature-controlled and specific pathogen-free environment with a 12-h light and 12-h dark cycle and they received a standard diet (Transbreed, SDS Diets, Technilab-BMI, Someren, The Netherlands) and acidified water ad libitum. […] Given the objective main readout (repotrectinib plasma and tissue concentrations as measured by LC-MS/MS), no blinding method was applied.
Repotrectinib was dissolved in dimethyl sulfoxide (DMSO) at a concentration of 50 mg/mL. This stock solution was first diluted 3-fold with ethanol/polysorbate 80 (1/1; v/v), followed by further dilution with a 10 mM hydrochloric acid solution, yielding a dosing solution of 1 mg/mL, freshly prepared on the day of experiment. Final concentrations of the solvents in the administration solution were: 2%, 2%, 2%, and 94% (all v/v) for DMSO, ethanol, polysorbate 80, and 10 mM hydrochloric acid solution, respectively.
To minimize variation in absorption upon oral administration, mice were fasted for 2–3 h before repotrectinib (10 mg/kg body weight) was administered by gavage into the stomach at 10 µL/g body weight, with a blunt-ended needle. Tail vein serial blood samples were collected at 0.125, 0.25, 0.5, 1, 2 and 4 h using heparinized capillary tubes (Sarstedt, Nümbrecht, Germany) for the 8-h experiments. For the 4- and 2-h experiments, blood samplings were performed from the tail vein with the same schedule, but terminated at 2 and 1 h, respectively. Eight, four, or two hours after oral administration, mice were deeply anesthetized with 2–3% isoflurane, followed by cardiac puncture to collect blood in Eppendorf tubes containing heparin as an anticoagulant. Brain, liver, spleen, kidney, lung, small intestine, and testis were rapidly collected after sacrificing the mice by cervical dislocation. The small intestinal contents (SIC) were separated from small intestinal tissue (SI), which was flushed and rinsed with cold saline to remove any residual feces. Brain, liver, spleen, kidney, lung, SI, SIC, and testis were homogenized with 1, 3, 1, 2, 1, 3, 2, and 1 mL of 2% BSA (w/v), respectively. Plasma fraction was isolated from blood by centrifugation at 9000× g for 6 min at 4 °C. All samples were stored at −30 °C until analysis.
A sensitive and specific liquid chromatography-tandem mass spectrometry method using protein precipitation pre-treatment was adopted to quantify the concentration of repotrectinib in DMEM medium, plasma samples and tissue homogenates.
A non-compartmental model using the PKSolver add-in program for Microsoft Excel was adopted to calculate the pharmacokinetic parameters of repotrectinib. Oral availability was assessed by the plasma area under the curve (AUC), calculated using repotrectinib plasma concentration-time curves with the linear trapezoidal rule without extrapolating the infinity. Statistical testing was performed in Graphpad Prism7 (Graphpad Software, La Jolla, CA, USA). All data are presented as geometric means ± SD. Heteroscedastic data were log-transformed before applying statistical analysis. When differences between two groups were compared, the two-sided unpaired Student’s t test was used. One-way analysis of variance (ANOVA) was applied when multiple groups were compared, and the Bonferroni post hoc correction was used to accommodate multiple testing. Differences were considered statistically significant when P < 0.05.

[1] = male Abcb1a/1b;Abcg2−/− mice, 4 h
[2] = male Abcb1a/1b;Abcg2−/− mice, 4 h, 10 mg/kg
[3] = male Abcb1a/1b−/− mice, 4 h, 10 mg/kg
[4] = male, po, 10 mg/kg, male Abcb1a/1b;Abcg2−/− mice, 4 h
[5] = male, po, 10 mg/kg, male Abcb1a/1b−/− mice, 4 h
[6] = male, po, 10 mg/kg, male Abcg2−/− mice, 4 h
[7] = male, po, 10 mg/kg, male wild-type mice, 4 h

C[C@H]1CNC(=O)c2cnn3ccc(nc23)N[C@H](C)c2cc(F)ccc2O1 [repotrectinib]
Small intestinal content recovery, fold decrease (Abcb1a/1b;Abcg2−/− mice vs wild-type): 13.6 fold | Small intestinal content recovery, fold decrease (Abcb1a/1b−/− mice vs wild-type): 4.9 fold | reduction of liver-to-plasma ratio (Abcg2−/− and Abcb1a/1b;Abcg2−/− mice compared to wild-type mice, 4 h): 30–35% | AUC(0-t) (male Abcg2−/− mice, 4 h): 11900 ± 1420 ng·h/mL | Fold change Cliver [1]: 1.37 | Fold change SIC (% of dose) [1]: 0.07 | Fold change ratio (SIC (%)-to-plasma) [1]: 0.03 | Fold change ratio (liver-to-plasma) [1]: 0.69 | Fold change ratio (testis-to-plasma) [1]: 5.6 | Fold increase Cbrain [1]: 29.1 | Fold increase Ctestis [1]: 10.8 | Fold change ratio (brain-to-plasma) [2]: 14 and 14.2 | Fold increase AUC0–4h [2]: 2.0 | Fold change Cliver (male Abcb1a/1b−/− mice, 4 h): 0.84 | Fold change SIC (% of dose) (male Abcb1a/1b−/− mice, 4 h): 0.20 | Fold change ratio (SIC (%)-to-plasma) (male Abcb1a/1b−/− mice, 4 h): 0.21 | Fold change ratio (liver-to-plasma) (male Abcb1a/1b−/− mice, 4 h): 0.85 | Fold change ratio (testis-to-plasma) (male Abcb1a/1b−/− mice, 4 h): 2.42 | Fold increase AUC0–4h (male Abcb1a/1b−/− mice, 4 h): 1.32 | Fold increase Ctestis (male Abcb1a/1b−/− mice, 4 h): 2.45 | Fold change ratio (brain-to-plasma) [3]: 4.1 and 4.13 | Fold increase Cbrain [3]: 4.1 and 4.14 | Fold change Cliver (male Abcg2−/− mice, 4 h): 1.01 | Fold change SIC (% of dose) (male Abcg2−/− mice, 4 h): 0.87 | Fold change ratio (SIC (%)-to-plasma) (male Abcg2−/− mice, 4 h): 0.54 | Fold change ratio (brain-to-plasma) (male Abcg2−/− mice, 4 h): 0.93 | Fold change ratio (liver-to-plasma) (male Abcg2−/− mice, 4 h): 0.65 | Fold change ratio (testis-to-plasma) (male Abcg2−/− mice, 4 h): 0.71 | Fold increase Cbrain (male Abcg2−/− mice, 4 h): 1.41 | Fold increase Ctestis (male Abcg2−/− mice, 4 h): 1.07 | Fold increase AUC0–4h (male Abcg2−/− mice, 4 h, 10 mg/kg): 1.7 | Fold change Cliver (male wild-type mice, 4 h): 1.00 | Fold change SIC (% of dose) (male wild-type mice, 4 h): 1.00 | Fold change ratio (SIC (%)-to-plasma) (male wild-type mice, 4 h): 1.00 | Fold change ratio (brain-to-plasma) (male wild-type mice, 4 h): 1.00 | Fold change ratio (liver-to-plasma) (male wild-type mice, 4 h): 1.00 | Fold change ratio (testis-to-plasma) (male wild-type mice, 4 h): 1.00 | Fold increase AUC0–4h (male wild-type mice, 4 h): 1.00 | Fold increase Cbrain (male wild-type mice, 4 h): 1.00 | Fold increase Ctestis (male wild-type mice, 4 h): 1.00 | Kp at 4 h (male, brain, po, 10 mg/kg, male Abcb1a/1b;Abcg2−/− mice, 4 h, read-out: Brain-to-plasma ratio): 2.13 ± 0.21 | concentration at 4 h (male, brain, po, 10 mg/kg, male Abcb1a/1b;Abcg2−/− mice, 4 h, read-out: Cbrain): 2760 ± 928 ng/g | Kp at 4 h (male, brain, po, 10 mg/kg, male Abcb1a/1b−/− mice, 4 h, read-out: Brain-to-plasma ratio): 0.62 ± 0.17 | concentration at 4 h (male, brain, po, 10 mg/kg, male Abcb1a/1b−/− mice, 4 h, read-out: Cbrain): 394 ± 102 ng/g | Kp at 4 h (male, brain, po, 10 mg/kg, male Abcg2−/− mice, 4 h, read-out: Brain-to-plasma ratio): 0.14 ± 0.03 | concentration at 4 h (male, brain, po, 10 mg/kg, male Abcg2−/− mice, 4 h, read-out: Cbrain): 134 ± 18 ng/g | Kp at 4 h (male, brain, po, 10 mg/kg, male wild-type mice, 4 h, read-out: Brain-to-plasma ratio): 0.15 ± 0.03 | concentration at 4 h (male, brain, po, 10 mg/kg, male wild-type mice, 4 h, read-out: Cbrain): 95.1 ± 23.5 ng/g | concentration at 4 h (male, liver, po, 10 mg/kg, male Abcb1a/1b;Abcg2−/− mice, 4 h, read-out: Cliver): 9090 ± 2750 ng/g | Kp at 4 h (male, liver, po, 10 mg/kg, male Abcb1a/1b;Abcg2−/− mice, 4 h, read-out: Liver-to-plasma ratio): 7.2 ± 1.2 | concentration at 4 h (male, liver, po, 10 mg/kg, male Abcb1a/1b−/− mice, 4 h, read-out: Cliver): 5580 ± 2030 ng/g | Kp at 4 h (male, liver, po, 10 mg/kg, male Abcb1a/1b−/− mice, 4 h, read-out: Liver-to-plasma ratio): 8.9 ± 2.4 | concentration at 4 h (male, liver, po, 10 mg/kg, male Abcg2−/− mice, 4 h, read-out: Cliver): 6690 ± 1210 ng/g | Kp at 4 h (male, liver, po, 10 mg/kg, male Abcg2−/− mice, 4 h, read-out: Liver-to-plasma ratio): 6.8 ± 0.6 | concentration at 4 h (male, liver, po, 10 mg/kg, male wild-type mice, 4 h, read-out: Cliver): 6630 ± 1160 ng/g | Kp at 4 h (male, liver, po, 10 mg/kg, male wild-type mice, 4 h, read-out: Liver-to-plasma ratio): 10.5 ± 1.9 | Cmax [4]: 5230 ± 1240 ng/mL | AUC(0-t) [4]: 14000 ± 3180 ng·h/mL | Cmax [5]: 3630 ± 620 ng/mL | AUC(0-t) [5]: 9200 ± 1640 ng·h/mL | Cmax [6]: 5080 ± 490 ng/mL | Cmax [7]: 3080 ± 1440 ng/mL | AUC(0-t) [7]: 6990 ± 2460 ng·h/mL | Tmax [4]: 60 min | Tmax [5]: 30 min | Tmax [6]: 15 min | Tmax [7]: 30 min | Kp at 4 h (male, small intestinal content, po, 10 mg/kg, male Abcb1a/1b;Abcg2−/− mice, 4 h, read-out: SIC (%)-to-plasma ratio): 0.0003 ± 9e-05 | Kp at 4 h (male, small intestinal content, po, 10 mg/kg, male Abcb1a/1b−/− mice, 4 h, read-out: SIC (%)-to-plasma ratio): 0.00186 ± 0.00084 | Kp at 4 h (male, small intestinal content, po, 10 mg/kg, male Abcg2−/− mice, 4 h, read-out: SIC (%)-to-plasma ratio): 0.00475 ± 0.00154 | Kp at 4 h (male, small intestinal content, po, 10 mg/kg, male wild-type mice, 4 h, read-out: SIC (%)-to-plasma ratio): 0.00879 ± 0.00241 | concentration at 4 h (male, testis, po, 10 mg/kg, male Abcb1a/1b;Abcg2−/− mice, 4 h, read-out: Ctestis): 1670 ± 386 ng/g | Kp at 4 h (male, testis, po, 10 mg/kg, male Abcb1a/1b;Abcg2−/− mice, 4 h, read-out: Testis-to-plasma ratio): 1.35 ± 0.31 | concentration at 4 h (male, testis, po, 10 mg/kg, male Abcb1a/1b−/− mice, 4 h, read-out: Ctestis): 380 ± 122 ng/g | Kp at 4 h (male, testis, po, 10 mg/kg, male Abcb1a/1b−/− mice, 4 h, read-out: Testis-to-plasma ratio): 0.58 ± 0.14 | concentration at 4 h (male, testis, po, 10 mg/kg, male Abcg2−/− mice, 4 h, read-out: Ctestis): 166 ± 27 ng/g | Kp at 4 h (male, testis, po, 10 mg/kg, male Abcg2−/− mice, 4 h, read-out: Testis-to-plasma ratio): 0.17 ± 0.02 | concentration at 4 h (male, testis, po, 10 mg/kg, male wild-type mice, 4 h, read-out: Ctestis): 155 ± 55 ng/g | Kp at 4 h (male, testis, po, 10 mg/kg, male wild-type mice, 4 h, read-out: Testis-to-plasma ratio): 0.24 ± 0.07 | SIC (% of dose) (small intestinal content, male Abcb1a/1b;Abcg2−/− mice, 4 h, 10 mg/kg): 0.4 % of dose and 0.41 ± 0.23 ^(##) % of dose | SIC (% of dose) (small intestinal content, male Abcb1a/1b−/− mice, 4 h, 10 mg/kg): 1.1 % of dose and 1.13 ± 0.40 % of dose | SIC (% of dose) (small intestinal content, male Abcg2−/− mice, 4 h, 10 mg/kg): 4.8 % of dose and 4.84 ± 2.21 % of dose
